For one compound, Km results are on record in PMC7698016 (Metabolites, 2020).

The target of the experiment is T1, AKR1C3 (aldo-keto reductase 1C3) (Homo sapiens, UniProt P42330).
T1 construct: human recombinant enzyme expressed in E. coli (Novus NBC1-21051)
Briefly: Km by real-time NADPH fluorescence ([…]); GC-QToF gave Km […]. In kind it is biochemical.

T1 sequence (P42330 whole entry): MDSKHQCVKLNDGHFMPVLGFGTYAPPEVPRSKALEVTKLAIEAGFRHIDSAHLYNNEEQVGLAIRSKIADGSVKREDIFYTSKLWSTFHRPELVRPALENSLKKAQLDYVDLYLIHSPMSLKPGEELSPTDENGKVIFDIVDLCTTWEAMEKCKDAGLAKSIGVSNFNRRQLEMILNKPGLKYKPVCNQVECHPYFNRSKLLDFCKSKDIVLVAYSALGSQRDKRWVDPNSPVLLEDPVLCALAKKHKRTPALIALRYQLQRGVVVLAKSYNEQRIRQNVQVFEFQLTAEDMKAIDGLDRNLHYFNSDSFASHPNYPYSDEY

For `C[C@]12CC[C@@H](O)C[C@H]1CC[C@@H]1[C@@H]2CC[C@]2(C)C(=O)CC[C@@H]12` [D, 3α-hydroxy-5β-androstan-17-one], the Km (usually the substrate concentration at which the rate is half of its maximum) came to 9.7 µM.
